# Values quoted from earlier work as cited in US20230364095A1, “TOPICAL TREATMENT OF VITILIGO” (INCYTE CORPORATION, priority 2020, published 2023).
# Like-named read-outs stand apart in the source and are kept apart here.
# System: patients with vitiligo
structure (smiles),measurement,setting,value
"N#CC[C@H](C1CCCC1)n1cc(-c2ncnc3[nH]ccc23)cn1 [ruxolitinib, (R)-3-(4-(7H-pyrrolo[2,3-d]pyrimidin-4-yl)-1H-pyrazol-1-yl)-3-cyclopentylpropanenitrile]",Clinical outcome (case report),"oral 20 mg BID for 20 weeks, patient with alopecia areata and vitiligo",hair regrowth as well as repigmentation of areas affected with vitiligo
C[C@@H]1CCN(C(=O)CC#N)C[C@@H]1N(C)c1ncnc2[nH]ccc12 [tofacitinib],Clinical outcome (case report),"oral 5 mg QD, after 5 months, widespread and progressive vitiligo",near complete repigmentation
